For data set [1] the following is noted: stated without a test; cited from earlier work.
In another data set the test system is MC38 colon cancer. The data set can be described thus: MC38 colon cancer tumor growth (FIG. 25A). The data set is classed as in vivo, mice. As to conditions: 5 mg/kg, i.p. As to the method:
(§1) FIGS. 25A-B is a set of curves showing the tumor growth of MC38 (FIG. 25A) or CT26 (FIG. 25B) colon cancer in mice treated with PBS (Control; closed circles), clonidine (5 mg/kg, i.p; closed squares) or apraclonidine (5 mg/kg, i.p; closed triangles).

Another data set deals with CT26 colon cancer. The data set can be described thus: CT26 colon cancer tumor growth (FIG. 25B). The data set is classed as in vivo, mice. Conditions: 5 mg/kg, i.p. The protocol: as §1
In a further data set the test system is cholangiocarcinoma. Conditions: in vitro; Kanno et al., Hepatology, 2002; cited from earlier work.

As to `Nc1cc(Cl)c(N=C2NCCN2)c(Cl)c1` [apraclonidine], in data set [1], the “crossing of the blood-brain barrier” value is reported as “does not cross the blood-brain barrier”. Moreover, the tumor growth entry in the data set on MC38 colon cancer and in the data set with CT26 colon cancer was “anti-tumor effect” throughout.

Turning to brimonidine tartrate [UK14,304], in the data set with cholangiocarcinoma, the cholangiocarcinoma growth result was “significantly decreases cholangiocarcinoma growth”.

The record behind these values is patent US20230165836A1, “ALPHA-2 ADRENERGIC RECEPTOR AGONISTS FOR THE TREATMENT OF CANCER” (UNIVERSITÉ CATHOLIQUE DE LOUVAIN, priority 2020, published 2023).
